pIC50: −log10 of the molar value.
How the values were obtained:
Assay type in all cases: biochemical
[1] = biological target: T1, N-terminal GST-tagged recombinant human Flt3, residues 564-end (Homo sapiens, UniProt P36888); experiment: Flt3 kinase inhibition assay (33P-ATP filter assay); conditions: 40 minutes, room temperature; less than or equal to 100 nM
T1 construct: recombinant human Flt3, residues 564-end; GST (N); purchased Upstate USA Inc, Charlottesville, Va
T1 sequence (P36888 564-993 limits assumed): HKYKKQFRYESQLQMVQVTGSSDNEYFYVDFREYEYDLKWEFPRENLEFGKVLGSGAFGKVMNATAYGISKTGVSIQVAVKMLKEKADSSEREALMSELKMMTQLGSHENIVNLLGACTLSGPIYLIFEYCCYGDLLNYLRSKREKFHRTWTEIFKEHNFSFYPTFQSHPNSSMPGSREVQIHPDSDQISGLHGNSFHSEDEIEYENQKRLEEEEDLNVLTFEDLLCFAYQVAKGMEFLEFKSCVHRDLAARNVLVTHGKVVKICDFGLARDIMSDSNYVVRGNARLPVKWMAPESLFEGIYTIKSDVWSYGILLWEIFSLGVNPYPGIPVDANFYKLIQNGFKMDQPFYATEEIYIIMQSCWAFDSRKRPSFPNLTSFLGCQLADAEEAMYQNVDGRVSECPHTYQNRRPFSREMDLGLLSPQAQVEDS
Description: (§1) Compounds were assayed for Flt3 kinase inhibitory activity using N-terminal GST-tagged recombinant human Flt3, residues 564-end (Upstate USA Inc, 706 Forest Street, Charlottesville, Va.). Serial dilutions of compound were assayed in a final reaction volume of 25 μL by incubating a solution of the above Flt3 kinase (5-10 mU), 8 mM MOPS (3-(N-morpholino)propanesulfonic acid) pH 7.0, 0.2 mM EDTA (ethylenediamine tetracetic acid), 50 μM amino acid sequence EAIYAAPFAKKK (Upstate USA Inc, 706 Forest Street, Charlottesville, Va.), and 10 mM magnesium acetate and [γ-^33P-ATP] (specific activity of about 500 cpm/pmol, concentration as required). The reaction was initiated by the addition of the magnesium acetate and [γ-^33P-ATP] mixture. After incubation for 40 minutes at room temperature, the reaction was stopped by the addition of 5 μL of a 3% phosphoric acid solution. A 10 μL aliquote of the reaction was then spotted onto a P30 filtermat (PerkinElmer, Wellesley, Mass.) and washed three times for five minutes in 75 mM phosphoric acid and once in methanol prior to drying and scintillation counting. Inhibition of Flt3 activity was determined by comparison to assays that contained no inhibitor.

[2] = biological target: T2, N-terminal His-tagged human Src (Homo sapiens, UniProt P12931); experiment: Src kinase inhibition assay (33P-ATP filter assay); conditions: 40 minutes, room temperature; less than or equal to 100 nM
T2 construct: His (N); purchased Upstate USA Inc, Charlottesville, Va
T2 sequence (P12931 whole entry): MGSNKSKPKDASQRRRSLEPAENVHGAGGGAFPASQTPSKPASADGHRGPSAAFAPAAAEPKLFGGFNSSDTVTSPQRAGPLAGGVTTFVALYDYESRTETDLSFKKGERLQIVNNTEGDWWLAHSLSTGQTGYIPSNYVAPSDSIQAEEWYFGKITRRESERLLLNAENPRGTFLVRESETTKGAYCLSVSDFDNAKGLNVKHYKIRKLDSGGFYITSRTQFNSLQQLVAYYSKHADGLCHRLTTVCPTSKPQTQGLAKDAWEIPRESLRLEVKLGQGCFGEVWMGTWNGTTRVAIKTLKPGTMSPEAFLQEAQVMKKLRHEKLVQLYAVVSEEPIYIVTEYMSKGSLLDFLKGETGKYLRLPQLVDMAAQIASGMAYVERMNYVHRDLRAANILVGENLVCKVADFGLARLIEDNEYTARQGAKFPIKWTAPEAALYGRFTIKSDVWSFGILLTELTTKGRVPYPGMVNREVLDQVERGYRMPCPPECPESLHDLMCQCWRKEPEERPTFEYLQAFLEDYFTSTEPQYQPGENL
Description: Compounds were assayed for Src kinase inhibitory activity using N-terminal His-tagged human Src (Upstate USA Inc, 706 Forest Street, Charlottesville, Va.). Serial dilutions of compound were assayed in a final reaction volume of 25 μL by incubating a solution of the above Src kinase (5-10 mU), 8 mM MOPS (3-(N-morpholino)propanesulfonic acid) pH 7.0, 0.2 mM EDTA (ethylenediamine tetracetic acid), 250 μM amino acid sequence KVEKIGEGTYGVVYK (Upstate USA Inc, 706 Forest Street, Charlottesville, Va.), and 10 mM magnesium acetate and [γ-^33P-ATP] (specific activity of about 500 cpm/pmol, concentration as required). The reaction was initiated by the addition of the magnesium acetate and [γ-^33P-ATP] mixture. After incubation for 40 minutes at room temperature, the reaction was stopped by the addition of 5 μL of a 3% phosphoric acid solution. A 10 μL aliquote of the reaction was then spotted onto a P30 filtermat (PerkinElmer, Wellesley, Mass.) and washed three times for five minutes in 75 mM phosphoric acid and once in methanol prior to drying and scintillation counting. Inhibition of Src activity was determined by comparison to assays that contained no inhibitor.

[3] = biological target: T3, N-terminal His6-tagged recombinant human KDR, residues 790-end (Homo sapiens, UniProt P35968); experiment: KDR kinase inhibition assay (33P-ATP filter assay); conditions: 40 minutes, room temperature; less than or equal to 100 nM
T3 construct: recombinant human KDR, residues 790-end; His6 (N); purchased Upstate USA Inc, Charlottesville, Va
T3 sequence (P35968 790-1356 limits assumed): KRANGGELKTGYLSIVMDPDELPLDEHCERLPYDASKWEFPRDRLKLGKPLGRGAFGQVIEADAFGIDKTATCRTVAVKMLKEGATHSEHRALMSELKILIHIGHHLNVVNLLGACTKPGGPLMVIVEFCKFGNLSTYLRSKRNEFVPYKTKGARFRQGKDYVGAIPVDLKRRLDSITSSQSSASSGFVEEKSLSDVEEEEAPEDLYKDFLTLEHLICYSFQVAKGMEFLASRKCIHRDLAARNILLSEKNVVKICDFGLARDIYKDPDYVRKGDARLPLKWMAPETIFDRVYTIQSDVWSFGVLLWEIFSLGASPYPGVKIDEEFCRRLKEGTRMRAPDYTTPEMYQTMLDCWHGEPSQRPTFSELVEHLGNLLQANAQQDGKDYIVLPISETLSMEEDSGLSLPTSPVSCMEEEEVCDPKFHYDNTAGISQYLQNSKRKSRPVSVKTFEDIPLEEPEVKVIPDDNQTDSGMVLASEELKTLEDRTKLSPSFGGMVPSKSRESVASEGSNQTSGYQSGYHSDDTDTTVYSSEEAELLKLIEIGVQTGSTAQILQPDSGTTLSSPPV
Description: as §1, with “KDR” for “Flt3”, “His6-tagged” for “GST-tagged”, “KDR,” for “Flt3,”, “790-end” for “564-end”, “0.33 mg/mL myelin basic protein” for “50 μM amino acid sequence EAIYAAPFAKKK”

recombinant Aurora A = biological target: T4, recombinant Aurora A (Homo sapiens, UniProt O14965); experiment: Aurora A (Aurora 2) inhibition assay, Z'-Lyte kinase assay; conditions: ATP 10 μM, 1 h; less than or equal to 100 nM
T4 construct: purchased Upstate, Lake Placid, N.Y
T4 sequence (O14965 1-403): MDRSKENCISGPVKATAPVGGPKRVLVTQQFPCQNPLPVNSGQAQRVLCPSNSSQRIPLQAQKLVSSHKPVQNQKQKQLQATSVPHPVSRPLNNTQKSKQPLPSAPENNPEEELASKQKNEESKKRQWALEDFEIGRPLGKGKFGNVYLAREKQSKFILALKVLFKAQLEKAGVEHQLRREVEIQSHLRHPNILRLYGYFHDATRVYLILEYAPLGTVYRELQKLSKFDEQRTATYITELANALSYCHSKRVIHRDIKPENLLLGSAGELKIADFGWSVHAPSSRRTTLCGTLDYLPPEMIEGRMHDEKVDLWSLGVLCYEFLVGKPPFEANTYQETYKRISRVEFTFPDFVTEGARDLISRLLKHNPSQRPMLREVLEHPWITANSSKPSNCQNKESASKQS
Description: Compounds were tested for their potency against recombinant Aurora A (Upstate, Lake Placid, N.Y.) using the PanVera Z′-Lyte kinase assay kit-Ser/Thr 1 peptide (Invitrogen, Carlsbad, Calif.). Assays were carried out in kinase assay buffer (50 mM HEPES, pH 7.5, 10 mM MgCl2, 5 mM EGTA, 0.05% Brij-35, 2 mM DTT). Test compounds were initially dissolved in DMSO at 100× the highest tested concentration, then serially diluted to 4× test concentrations in kinase assay buffer. Next, Aurora A (final concentration 200-500 ng/mL), Z′-Lyte Ser/Thr 1 peptide (final concentration 2 μM) and ATP (final concentration 10 μM) were added according to the manufacturer's instructions. Assays were carried out in half-area 96-well white polystyrene assay plates (Corning, Corning, N.Y.) in a final volume of 20 μl. The reaction was allowed to proceed for 1 h at room temperature in the dark, at which point the development reagent and stop reagent were added according to the manufacturer's instructions. Coumarin (Ex. 400 nm, Em. 465 nm) and fluorescein (Ex. 400 nm, Em. 565 nm) fluorescence values were measured on a SpectraFluor Plus plate reader (Tecan, Durham, N.C.). The emission ratio (coumarin/fluorescein) was determined and used to calculate the percent phosphorylation for each well. Wells containing substrate but no kinase and wells containing a phosphopeptide control were used to set 0% and 100% phosphorylation values, respectively. Typically 20-40% of the substrate was phosphorylated in wells without inhibitor. Dose-response curves of relative Aurora A activity vs. inhibitor concentration were plotted with Grafit (Erithacus Software, Horley, Surrey, UK).

Measured: pIC50

COC1CCN(C2CN(c3cc(Nc4cc(C)[nH]n4)nc(/C=C/c4ccccc4)n3)C2)CC1 [Compound 1, (E)-6-(3-(4-methoxypiperidin-1-yl)azetidin-1-yl)-N-(5-methyl-1H-pyrazol-3-yl)-2-styrylpyrimidin-4-amine]
≥ 7.00: all assays above

Cc1cc(Nc2cc(N3CCC(N4CCCC4)CC3)nc(/C=C/c3ccccc3)n2)n[nH]1 [Compound 2, (E)-N-(5-methyl-1H-pyrazol-3-yl)-6-(4-(pyrrolidin-1-yl)piperidin-1-yl)-2-styrylpyrimidin-4-amine]
≥ 7.00: all assays above

Cc1cc(Nc2cc(N3CCN(C4CCN(C)CC4)CC3)nc(/C=C/c3ccccc3)n2)n[nH]1 [Compound 4, (E)-N-(5-methyl-1H-pyrazol-3-yl)-6-(4-(1-methylpiperidin-4-yl)piperazin-1-yl)-2-styrylpyrimidin-4-amine]
≥ 7.00: all assays above

Cc1cc(Nc2cc(N3CCN(c4ccccc4)CC3)nc(/C=C/c3ccccc3)n2)n[nH]1 [Compound 8, (E)-N-(5-methyl-1H-pyrazol-3-yl)-6-(4-phenylpiperazin-1-yl)-2-styrylpyrimidin-4-amine]
≥ 7.00: [1]

Cc1cc(Nc2cc(N3CCN(C4CCCCC4)CC3)nc(/C=C/c3ccccc3)n2)n[nH]1 [Compound 9, (E)-6-(4-cyclohexylpiperazin-1-yl)-N-(5-methyl-1H-pyrazol-3-yl)-2-styrylpyrimidin-4-amine]
≥ 7.00: all assays above

Cc1cc(Nc2cc(N3CCN(c4ccc(C#N)cc4)CC3)nc(/C=C/c3ccccc3)n2)n[nH]1 [Compound 10, (E)-4-(4-(6-(5-methyl-1H-pyrazol-3-ylamino)-2-styrylpyrimidin-4-yl)piperazin-1-yl)benzonitrile]
≥ 7.00: [1]

Cc1cc(Nc2cc(N3CCC(O)(c4ccc(Cl)cc4)CC3)nc(/C=C/c3ccccc3)n2)n[nH]1 [Compound 11, (E)-4-(4-chlorophenyl)-1-(6-(5-methyl-1H-pyrazol-3-ylamino)-2-styrylpyrimidin-4-yl)piperidin-4-ol]
≥ 7.00: [1]

Cc1cc(Nc2cc(N3CCN(c4ccc([N+](=O)[O-])cc4)CC3)nc(/C=C/c3ccccc3)n2)n[nH]1 [Compound 12, (E)-N-(5-methyl-1H-pyrazol-3-yl)-6-(4-(4-nitrophenyl)piperazin-1-yl)-2-styrylpyrimidin-4-amine]
≥ 7.00: [1] | [3]

Cc1cc(Nc2cc(N3CCN(CCN4CCOCC4)CC3)nc(/C=C/c3ccccc3)n2)n[nH]1 [Compound 13, (E)-N-(5-methyl-1H-pyrazol-3-yl)-6-(4-(2-morpholinoethyl)piperazin-1-yl)-2-styrylpyrimidin-4-amine]
≥ 7.00: all assays above

Cc1cc(Nc2cc(N3CCN(c4ccccn4)CC3)nc(/C=C/c3ccccc3)n2)n[nH]1 [Compound 14, (E)-N-(5-methyl-1H-pyrazol-3-yl)-6-(4-(pyridin-2-yl)piperazin-1-yl)-2-styrylpyrimidin-4-amine]
≥ 7.00: [1] | recombinant Aurora A

Cc1cc(Nc2cc(N3CC(N4CCOCC4)C3)nc(/C=C/c3ccccc3)n2)n[nH]1 [Compound 15, (E)-N-(5-methyl-1H-pyrazol-3-yl)-6-(3-morpholinoazetidin-1-yl)-2-styrylpyrimidin-4-amine]
≥ 7.00: all assays above

Cc1cc(Nc2cc(N3CCC(O)(Cc4ccccc4)CC3)nc(/C=C/c3ccccc3)n2)n[nH]1 [Compound 16]
≥ 7.00: [1] | recombinant Aurora A

Cc1cc(Nc2cc(N3CC(N4CCCCC4)C3)nc(/C=C/c3ccccc3)n2)n[nH]1 [Compound 18, (E)-N-(5-methyl-1H-pyrazol-3-yl)-6-(3-(piperidin-1-yl)azetidin-1-yl)-2-styrylpyrimidin-4-amine]
≥ 7.00: all assays above

Cc1cc(Nc2cc(N3CC(N4CCC(O)CC4)C3)nc(/C=C/c3ccccc3)n2)n[nH]1 [Compound 21, (E)-1-(1-(6-(5-methyl-1H-pyrazol-3-ylamino)-2-styrylpyrimidin-4-yl)azetidin-3-yl)piperidin-4-ol]
≥ 7.00: all assays above

Cc1cc(Nc2cc(N3CCC(N4CCCCC4)C3)nc(/C=C/c3ccccc3)n2)n[nH]1 (stereo not drawn) [Compound 23, (E)-N-(5-methyl-1H-pyrazol-3-yl)-6-(3-(piperidin-1-yl)pyrrolidin-1-yl)-2-styrylpyrimidin-4-amine]
≥ 7.00: all assays above
